Series [1] has as its target T1, Pyruvate kinase PKLR (Homo sapiens, UniProt P30613). In words: Activation of PKR (unknown origin).
The target in series [2] is T1, Pyruvate kinase PKLR. In words: Activation of PKR (unknown origin) by differential scanning fluorimetry analysis. For orientation: In DSF a fluorescence change marks the thermal transition of the protein.
A short description of series [3]: Permeability of the compound across apical to basolateral side. It counts as ADME. As to conditions: not told; read-out: permeability; call rule not given here.
The next series concerns the target T2, aromatase (Homo sapiens, UniProt P11511).
T2 sequence (P11511 whole entry): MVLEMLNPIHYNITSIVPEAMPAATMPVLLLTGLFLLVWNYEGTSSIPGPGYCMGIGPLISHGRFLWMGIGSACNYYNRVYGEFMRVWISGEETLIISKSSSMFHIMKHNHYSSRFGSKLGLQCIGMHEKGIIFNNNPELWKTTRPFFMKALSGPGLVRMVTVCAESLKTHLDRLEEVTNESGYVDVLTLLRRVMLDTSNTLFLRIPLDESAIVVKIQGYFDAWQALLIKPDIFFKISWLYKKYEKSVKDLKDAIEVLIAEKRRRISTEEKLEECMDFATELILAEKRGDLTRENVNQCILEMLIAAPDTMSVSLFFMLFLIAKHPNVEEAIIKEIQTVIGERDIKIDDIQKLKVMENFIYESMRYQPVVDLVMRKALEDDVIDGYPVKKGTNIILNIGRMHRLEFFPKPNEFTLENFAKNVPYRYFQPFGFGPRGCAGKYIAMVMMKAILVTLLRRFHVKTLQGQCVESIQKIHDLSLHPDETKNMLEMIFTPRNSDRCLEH
In words: Inhibition of aromatase (unknown origin) at 10 uM relative to control.

Series [4] can be described thus: AUC in rat at 10 mg/kg, po. It counts as ADME, organism-based. Particulars: in vivo.
Series [5] in a line: Solubility of the compound. It counts as physicochemical.
The target of series [6] is Voltage-gated inwardly rectifying potassium channel KCNH2 (Homo sapiens, UniProt Q12809). The series can be described thus: Inhibition of human ERG at >50 uM. It counts as toxicity.
The nature of series [7]: Half life in rat at 10 mg/kg, po. It counts as ADME, organism-based. Particulars: in vivo.
A short description of series [8]: Genotoxicity in Salmonella typhimurium. It counts as toxicity. As to conditions: salmonella enterica subsp. enterica serovar typhimurium.

SMILES strings stand for the structures. Converted amounts (≈) assume the structure as drawn.

T1 sequence (P30613 whole entry): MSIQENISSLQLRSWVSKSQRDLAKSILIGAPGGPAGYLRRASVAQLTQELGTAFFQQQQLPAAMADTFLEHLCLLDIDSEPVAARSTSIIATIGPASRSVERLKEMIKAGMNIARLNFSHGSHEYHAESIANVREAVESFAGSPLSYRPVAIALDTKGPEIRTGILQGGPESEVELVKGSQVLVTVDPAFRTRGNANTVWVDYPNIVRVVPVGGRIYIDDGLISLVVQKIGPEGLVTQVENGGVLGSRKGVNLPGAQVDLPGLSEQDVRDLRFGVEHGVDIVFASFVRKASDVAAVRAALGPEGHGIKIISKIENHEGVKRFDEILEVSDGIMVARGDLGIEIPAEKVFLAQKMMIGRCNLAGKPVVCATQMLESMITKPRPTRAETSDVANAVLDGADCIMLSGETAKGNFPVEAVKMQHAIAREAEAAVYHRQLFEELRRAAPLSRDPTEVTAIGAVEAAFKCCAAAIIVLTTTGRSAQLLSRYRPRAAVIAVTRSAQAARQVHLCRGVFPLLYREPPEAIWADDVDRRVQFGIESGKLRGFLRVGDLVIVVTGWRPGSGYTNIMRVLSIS
Voltage-gated inwardly rectifying potassium channel KCNH2, sequence (Q12809 whole entry): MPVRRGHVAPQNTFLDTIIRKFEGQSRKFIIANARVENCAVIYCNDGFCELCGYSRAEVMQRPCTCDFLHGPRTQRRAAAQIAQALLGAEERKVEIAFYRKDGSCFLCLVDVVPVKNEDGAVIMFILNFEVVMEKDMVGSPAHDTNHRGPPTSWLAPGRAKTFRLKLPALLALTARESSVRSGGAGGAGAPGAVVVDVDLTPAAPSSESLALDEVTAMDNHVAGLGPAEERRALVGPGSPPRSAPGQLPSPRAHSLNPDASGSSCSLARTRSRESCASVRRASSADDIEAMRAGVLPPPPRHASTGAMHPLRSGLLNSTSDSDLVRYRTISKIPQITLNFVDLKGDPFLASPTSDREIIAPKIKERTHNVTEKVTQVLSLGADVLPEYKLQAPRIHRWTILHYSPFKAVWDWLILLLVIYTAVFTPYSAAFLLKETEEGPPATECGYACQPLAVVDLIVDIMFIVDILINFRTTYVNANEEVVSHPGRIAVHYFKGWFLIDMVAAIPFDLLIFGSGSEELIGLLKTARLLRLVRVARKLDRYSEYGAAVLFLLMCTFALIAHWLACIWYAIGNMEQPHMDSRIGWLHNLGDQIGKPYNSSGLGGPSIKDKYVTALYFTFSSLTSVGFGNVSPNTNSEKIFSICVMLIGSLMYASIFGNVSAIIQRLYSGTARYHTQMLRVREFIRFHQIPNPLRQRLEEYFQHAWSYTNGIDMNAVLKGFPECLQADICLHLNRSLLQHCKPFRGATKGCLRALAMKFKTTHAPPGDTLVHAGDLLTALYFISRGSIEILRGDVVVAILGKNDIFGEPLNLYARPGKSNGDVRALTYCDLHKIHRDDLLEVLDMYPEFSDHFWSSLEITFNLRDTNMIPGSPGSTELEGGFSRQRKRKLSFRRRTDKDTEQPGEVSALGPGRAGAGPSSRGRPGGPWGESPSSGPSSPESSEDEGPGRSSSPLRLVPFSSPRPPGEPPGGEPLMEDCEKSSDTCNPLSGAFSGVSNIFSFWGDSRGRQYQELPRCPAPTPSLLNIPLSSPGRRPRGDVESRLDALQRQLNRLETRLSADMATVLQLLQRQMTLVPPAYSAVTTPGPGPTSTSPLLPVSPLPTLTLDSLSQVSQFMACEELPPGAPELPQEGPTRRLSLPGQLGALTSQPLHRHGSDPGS

As usually defined, the EC50 is the concentration at which the effect is half-maximal. A higher EC50 goes with weaker potency. For the molecule `Cc1ccc(-n2nnnc2CNC(=O)NC2CCCCC2)cc1C`, the midpoint of the response at Pyruvate kinase PKLR [1], the EC50, lay at 100 µM.

As for `O=C(NCc1nnnn1-c1ccc(F)c(F)c1)Nc1cccs1`, the response at Pyruvate kinase PKLR [1] was half-maximal at 100 µM (EC50).

`O=C(NCc1nnnn1-c1ccc(Cl)cc1)Nc1cccs1` returned an EC50 at Pyruvate kinase PKLR [1] of 100 µM.

`Cc1cnccc1CNC(=O)c1cc(COc2ccc3c(c2)OCO3)[nH]n1` yielded a half-maximal effective concentration (EC50) on Pyruvate kinase PKLR [2] of 58 µM.

`Cc1ccc(-n2nnnc2CNC(=O)Nc2ccccc2)cc1C`: the EC50 at Pyruvate kinase PKLR [1] turned out to be 100 µM.

As a reminder, the inhibition is the drop in the measured response relative to a control, in per cent. Low values mean a response near the control, high ones a response far below the control. A word on the AUC: it is concentration integrated over time. The term solubility denotes the concentration that dissolves in the medium under given conditions. The term half-life denotes how long it takes for the measured level to halve. With `Cc1nc(CNC(=O)NCc2ncnn2-c2ccc3cccnc3c2)n(-c2ccc(Cl)c(F)c2)n1`, the Papp A→B in [3] turned out to be 1.2 ×10⁻⁶ cm/s. In addition, the inhibition at 10 µM against aromatase is 17%. In series [4], this molecule yielded an area under the curve (AUC) of 2.9 µM·h. Also, the concentration in solution in [5] (solubility) was 59 µM (≈ 29 µg/mL). Moreover, the “inhibition (INH)” value in series [6] is reported as “Not Active”. This molecule also had a half-life in series [7] of 2.4 h. Moreover, in [8], the Activity entry is listed as “Non-Toxic”.

The values are drawn from ChEMBL document CHEMBL6071124, “The search for pyruvate kinase-R activators; from a HTS screening hit via an impurity to the discovery of a lead series” (Bioorg Med Chem Lett, 2024).
